According to patent publication US20260285909A1, “PEPTIDES FOR ANTIMICROBIAL THERAPY” (Karl-Franzens-Universität Graz, priority 2023, published 2026):

Experiments:
human erythrocytes = experiment: Hemolysis assay; format: cell-based
Method: In the context of the present invention, the test whether a peptide has a hemolytic activity which is lower than the hemolytic activity of peptide OP-145 (acetyl-[…]-amide (SEQ ID NO: 50)) may be performed according to any method known in the art, as for instance disclosed in Avrahami & Shai, 2004. In particular, a 0.5% erythrocyte solution in phosphate-buffered saline is exposed to the respective peptide (e.g. at 1 μM or 10 μM or 20 μM or 50 μM) at 37° C. for 1 h; hemolysis is determined by measuring optical density of the cell supernatants at 415 nm. More specifically, the assay may be performed as follows: Whole venous blood of healthy volunteers is collected in citrate tubes. Erythrocytes are isolated by centrifuging the blood for 10 min at 2,000×g and subsequently washing twice in PBS. […] After 1 h at 37° C. under static conditions, the erythrocyte suspensions are centrifuged and the optical density of the supernatants is determined at 415 nm. The percentage of hemolysis may be calculated relative to a positive control (e.g. 1% Triton X-100).
Hemolysis assay: Whole venous blood of healthy volunteers was collected in citrate tubes. […] After 1 h at 37° C. under static conditions, the erythrocyte suspensions were centrifuged and the optical density of the supernatants was determined at 415 nm. The percentage of hemolysis was calculated relative to the positive control (1% Triton X-100).

B. subtilis 168 trpC2 = experiment: Antimicrobial activity (LC99.9), killing in PBS with plating; format: cell-based, Bacillus subtilis; settings: Gram-positive bacteria, lowest peptide concentration that killed ≥99.9% of bacteria, 37° C.
Method: (§1) In the context of the present invention, the test whether a peptide has an antimicrobial activity which is higher than the antimicrobial activity of peptide OP-145 (acetyl-[…]-amide (SEQ ID NO: 50)) may be performed according to any method known in the art, as for instance disclosed in Balouiri et al, 2016. In particular, S. aureus JAR060131, Enterococcus hirae ATCC 10541, Bacillus subitlis 168C trpC2 or Escherichia coli ATCC25992 are cultured to mid-logarithmic phase in tryptic soy broth, brain heart infusion (BHIB), mueller hinton (MHB) or luria broth (LB) and washed once with PBS. […] Thereafter, the number of viable bacteria is determined by plating on diagnostic sensitivity agar. Antimicrobial activity is expressed as the 99.9% killing concentration (LC99.9), i.e., the lowest peptide concentration that killed ≥99.9% of bacteria. […]
(§2) Antimicrobial activity: S. aureus JAR060131, Enterococcus hirae ATCC 10541, Bacillus subitlis 168C trpC2, Escherichia coli ATCC25992 or their variants were cultured to mid-logarithmic phase in tryptic soy broth, brain heart infusion (BHIB), mueller hinton (MHB) or luria broth (LB) and washed once with PBS. […] Thereafter, the number of viable bacteria was determined by plating on diagnostic sensitivity agar. Antimicrobial activity is expressed as the 99.9% killing concentration (LC99.9), i.e., the lowest peptide concentration that killed ≥99.9% of bacteria.

[1] = system: Gram-negative and Gram-positive bacteria; experiment: Antimicrobial activity, overall statement; format: cell-based; settings: against both Gram-negative and Gram-positive bacteria
Method: (§3) Antimicrobial activity: S. aureus JAR060131, Enterococcus hirae ATCC 10541, Bacillus subitlis 168C trpC2, Escherichia coli ATCC25992 or their variants were cultured to mid-logarithmic phase in tryptic soy broth, brain heart infusion (BHIB), mueller hinton (MHB) or luria broth (LB) and washed once with PBS. Approximately 1×10^6 CFU/ml of PBS were incubated with peptide (final concentrations: 0-102.4 μM) for 0-2 h at 37° C. under shaking conditions. Thereafter, the number of viable bacteria was determined by plating on diagnostic sensitivity agar. Antimicrobial activity is expressed as the 99.9% killing concentration (LC99.9), i.e., the lowest peptide concentration that killed ≥99.9% of bacteria.

E. coli ATCC25992 = experiment: Antimicrobial activity (LC99.9), killing in PBS with plating; format: cell-based, Escherichia coli; settings: Gram-negative bacteria, lowest peptide concentration that killed ≥99.9% of bacteria, 37° C.
Method: as §1, §2

[2] = system: multi-resistant clinical isolates; experiment: Bactericidal activity against multi-resistant clinical isolates (FIG. 4); format: cell-based; settings: 1 h treatment with peptides in presence of PBS
Method: Bactericidal activity was tested (for 1 h treatment with peptides) in presence of PBS according to de Breij et al., 2018. Bactericidal activity is expressed as LC99.9%—is the lethal concentration causing death in 99.9% cells. Results are ranges of at least three independent experiments. If no range is given, then LC99.9 values were identical in all experiments.
as §3

IGKEFKRIVERKWRFLRELVRPLR [SEQ ID NO: 2]
lysis of human erythrocytes (human erythrocytes): did not lyse the human erythrocytes
LC99.9% (B. subtilis 168 trpC2): 3.2 µM
antimicrobial activity compared to OP-145I12K [1]: improved antimicrobial activity
LC99.9% (E. coli ATCC25992): 6.4 µM

IGKKFKRIVRRKKRFLRKLVRPLR [SEQ ID NO: 3]
lysis of human erythrocytes (human erythrocytes): did not lyse the human erythrocytes
antimicrobial (bactericidal) activity against multi-resistant clinical isolates [2]: Excellent antimicrobial activity
LC99.9% (B. subtilis 168 trpC2): 3.2 µM
antimicrobial activity compared to OP-145I12K [1]: improved antimicrobial activity
LC99.9% (E. coli ATCC25992): 3.2 µM
